One may read the inhibition as the percentage by which the read-out fell short of the control. For orientation: Ki means a measure of affinity in units of concentration, obtained from inhibition or displacement. Low readings indicate tighter binding, high ones weaker binding. The IC50 is the concentration needed to halve the response being measured. Low readings indicate greater potency in that assay, high ones weaker potency in that assay. One may read the EC50 as the concentration needed to bring the measured effect to its halfway point. High values mean lower potency in that assay, low ones higher potency in that assay.

We go through ten compounds from article PMC6696315, “Inhibiting Acetylcholinesterase to Activate Pleiotropic Prodrugs with Therapeutic Interest in Alzheimer’s Disease” (Molecules, 2019).

“And” between values parts separate entries of the source, which are not always exact repeats. Identical values can stand only once. “Also recorded” adds a separate entry of the source. Counter-ions that a name gives are not always drawn.

Data set [1] deals with T1, AChE (Homo sapiens, UniProt P22303). In words: AChE inhibition, Ellman assay. On the set-up: AChE from human erythrocytes; purchased Sigma Aldrich; host or cells: human erythrocytes (natural source). The data set is classed as biochemical. The conditions noted are these: for inhibition at 1 µM: read-out: (h)AChE % Inhibition at 10^−6 M; for AChE inhibitory activity: result in words. The protocol:
All the synthesized phenolic derivatives and their carbamates were evaluated as potential inhibitors of human AChE, using the Ellman assay, as well as potential ligands for human 5-HT4R using a radioligand displacement assay.
The inhibitory capacity of compounds on AChE biological activity was evaluated through the use of the spectrometric method of Ellman. Acetylthiocholine iodide and 5,5-dithiobis-(2-nitrobenzoic) acid (DTNB) were purchased from Sigma Aldrich. AChE from human erythrocytes (buffered aqueous solution, ≥500 units/mg protein (BCA), Sigma Aldrich, St. Louis, MO, USA) was diluted in 20 mM HEPES buffer pH 8, 0.1% Triton X-100 such as to have enzyme solution with 0.25 unit/mL enzyme activity. In the procedure, 100 μL of 0.3 mM DTNB dissolved in a phosphate buffer with pH 7.4 were added into the 96-well plates followed by 50 μL of the test compound solution and 50 μL of enzyme (0.05 U final). After 5 min of preincubation at 25 °C, the reaction was then initiated by the injection of 50 μL of 10 mM acetylthiocholine iodide solution. […] Assays were performed with a blank containing all components except acetylthiocholine, in order to account for non-enzymatic reactions. The reaction slopes were compared and the percent inhibition due to the presence of test compounds was calculated by the following expression: 100 − (vi/v0 × 100), where vi is the rate calculated in the presence of inhibitor and v0 is the enzyme activity.
(In general: DTNB colorimetry detects thiols as they appear.)

Data set [2] concerns the target T2, human 5-HT4R (Homo sapiens, UniProt Q13639).
T2 construct: purchased Eurofins HTS110M
Kind of data set: 5-HT4R radioligand displacement assay ([3H]-GR113808). The data set is classed as binding. The conditions noted are these: mean ± SEM of at least three experiments. On the technique in general: In a radioligand displacement assay an active substance lowers the binding of a labelled ligand.

Data set [3] deals with rodents. The conditions noted are these: various tests; cited from earlier work.
The subject of data set [4] is rodents. As to conditions: cited from earlier work.
The next data set relates to mice. In words: CNS-activity and acute toxicity test. The conditions noted are these: mice, IP. How it is done: Animals. Adult male NMRI mice (3 months old, weighing 35–40 g) from Janvier labs (Le Genest-Saint-Isle, France) were used to perform experiments. Mice were housed by ten in standard polycarbonate cages in standard controlled conditions (22 ± 2 °C, 55 ± 10% humidity) with a reversed 12 h light/dark cycle (light on at 7 pm). Food and water were available ad libitum in the home cage. All experiments were conducted (between 9 am and 3 pm) during the active–dark phase of the cycle and were in agreement with the European Directives and French law on animal experimentation (personal authorization n° 14–17 for MB and 14–60 for TF).
CNS-activity and acute toxicity test. Behavioral and neurological changes induced by graded doses (1, 10, 100 mg/kg) of the tested derivatives were evaluated in mice, in groups of four, by a standardized observation technique at different times (30 min, 3 and 24 h) after intraperitoneal administration. […] The approximate DL50 of the compounds were also calculated through the quantification of mortality after 24 h. Amphetamine (2 mg/kg) and chlorpromazine (10 mg/kg) were used as the stimulant and depressive references, respectively.

The target in data set [5] is T2, human 5-HT4R. In words: 5-HT4R radioligand displacement assay ([3H]-GR113808). The data set is classed as binding. The conditions noted are these: for 5-HT4R affinity: result in words. The protocol:
All the synthesized phenolic derivatives and their carbamates were evaluated as potential inhibitors of human AChE, using the Ellman assay, as well as potential ligands for human 5-HT4R using a radioligand displacement assay. […].
For competition studies, 2.5 µg of proteins (5-HT4(b) membrane preparations, HTS110M, Eurofins. Eurofins’ 5-HT4(b) membrane preparations are crude membrane preparations made from their proprietary stable recombinant cell lines to ensure high-level of GPCR surface expression.) were incubated in duplicate at 25 °C for 60 min in the absence or the presence of 10^−6 or 10^−8M of each drug (9 was used as a reference standard) and 0.2 nM [^3H]-GR113808 (NET 1152, Perkin Elmer) in 25 mM Tris buffer (pH 7.4, 25 °C). At the end of the incubation, homogenates were filtered through Whatman GF/C filters (Alpha Biotech) pre-soaked with 0.5% polyethylenimine using a Brandel cell harvester. Filters were subsequently washed three times with 1 mL of ice-cold 25 mM Tris buffer (pH 7.4, 4 °C). Non-specific binding was evaluated in parallel in the presence of 30 µM serotonin. For some of these compounds, affinity constants were calculated from five-point inhibition curves using the GraphPad Prism 6 software and expressed as Ki ± SD.

A further data set deals with T3, (h)5-HT4(a) receptors (Homo sapiens, UniProt Q13639).
T3 construct: HA; expressed in transfected cells; host or cells: COS-7
Kind of data set: cAMP production in COS-7 cells transfected with 5-HT4R. The data set is classed as cell-based. The protocol: COS-7 cells were grown in Dulbecco’s modified Eagle medium (DMEM) supplemented with 10% dialyzed fetal calf serum (dFCS) and antibiotics. Cells were transiently transfected by electroporation with plasmids encoding HA-tagged 5-HT4R (100 ng/10^6 cells), then seeded in 96-well plates (16,000 cells/well). […] After 10 min, cells were then lysed by the addition of the same volume of Triton-X100 (0.1%). Quantification of cAMP production was performed by HTRF® using the cAMP Dynamic kit (Cisbio Bioassays, Codolet, France) according to the manufacturer’s instructions.
For orientation: Changes in cAMP serve as a functional read-out for many G protein-coupled receptors.

Data set [6] has as its target T1, AChE. Kind of data set: Kinetic study for AChE inhibition (Lineweaver-Burk plots). The data set is classed as biochemical. How it is done:
To try to clarify the mechanism of action of 19 and 20, reciprocal plots of 1/velocity vs. 1/[substrate] were constructed at different concentrations of the substrate acetylthiocholine iodide (0.01–1 mM) by using the spectrometric method by Ellman et al.. Four concentrations of 19 were selected for the studies: 10^−6, 10^−7, 10^−8 and 10^−9 M for the kinetic analysis of AChE inhibition. Four concentrations of 20 were selected for the studies: 10^−5, 10^−6, 10^−7 and 10^−8 M for the kinetic analysis of AChE inhibition. The plots were assessed by a weighted least squares analysis that assumed the variance of velocity (ν) to be a constant percentage of ν for the entire dataset. Slopes of these reciprocal plots were then plotted against the concentration of 19 and 20 in a weighted analysis.

The mark [7] stands for this setting: (h)AChE IC50, Ellman assay, mean ± SEM of at least two experiments.

T1 sequence (P22303 32-617 isoform P22303-2 limits assumed): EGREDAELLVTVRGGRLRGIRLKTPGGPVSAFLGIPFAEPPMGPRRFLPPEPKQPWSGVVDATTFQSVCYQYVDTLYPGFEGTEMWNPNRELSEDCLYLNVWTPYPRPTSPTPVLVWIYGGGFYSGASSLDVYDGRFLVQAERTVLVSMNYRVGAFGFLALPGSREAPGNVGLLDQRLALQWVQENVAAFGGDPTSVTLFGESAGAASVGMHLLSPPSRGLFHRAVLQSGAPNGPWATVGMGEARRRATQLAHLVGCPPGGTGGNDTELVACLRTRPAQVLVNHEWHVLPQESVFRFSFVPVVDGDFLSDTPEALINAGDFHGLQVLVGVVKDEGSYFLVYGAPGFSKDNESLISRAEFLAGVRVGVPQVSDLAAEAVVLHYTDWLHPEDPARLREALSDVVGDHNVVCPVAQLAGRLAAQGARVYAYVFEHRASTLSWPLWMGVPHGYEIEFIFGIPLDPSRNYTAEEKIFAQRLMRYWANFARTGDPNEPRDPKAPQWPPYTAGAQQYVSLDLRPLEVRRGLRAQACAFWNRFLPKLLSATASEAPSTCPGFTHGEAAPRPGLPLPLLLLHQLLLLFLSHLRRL
T3 sequence (Q13639 1-387 isoform Q13639-2): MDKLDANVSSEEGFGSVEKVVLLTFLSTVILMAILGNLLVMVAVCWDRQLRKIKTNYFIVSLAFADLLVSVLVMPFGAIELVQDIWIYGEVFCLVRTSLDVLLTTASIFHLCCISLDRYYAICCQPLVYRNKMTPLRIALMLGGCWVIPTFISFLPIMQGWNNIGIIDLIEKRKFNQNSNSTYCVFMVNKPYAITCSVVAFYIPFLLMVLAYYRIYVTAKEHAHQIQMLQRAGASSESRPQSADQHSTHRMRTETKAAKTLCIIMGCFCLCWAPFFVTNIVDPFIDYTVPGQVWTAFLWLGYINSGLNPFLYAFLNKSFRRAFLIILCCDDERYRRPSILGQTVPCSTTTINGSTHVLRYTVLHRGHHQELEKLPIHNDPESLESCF
T2 sequence (Q13639 whole entry): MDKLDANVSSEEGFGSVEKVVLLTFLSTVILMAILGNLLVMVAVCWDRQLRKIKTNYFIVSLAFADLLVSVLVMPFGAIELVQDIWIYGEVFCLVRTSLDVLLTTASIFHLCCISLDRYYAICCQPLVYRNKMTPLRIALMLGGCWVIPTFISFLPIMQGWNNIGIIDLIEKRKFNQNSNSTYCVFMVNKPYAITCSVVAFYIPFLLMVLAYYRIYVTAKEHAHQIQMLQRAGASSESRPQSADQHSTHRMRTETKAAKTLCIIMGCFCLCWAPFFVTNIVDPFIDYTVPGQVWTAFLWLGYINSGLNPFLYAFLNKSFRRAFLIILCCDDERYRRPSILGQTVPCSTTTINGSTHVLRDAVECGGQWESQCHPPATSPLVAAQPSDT

Regarding `COc1cc(N)c(Cl)cc1C(=O)OCC1CCN(Cc2cccc(O)c2)CC1` [Compound 5, [1-[(3-Hydroxyphenyl)methyl]-4-piperidyl]methyl 4-amino-5-chloro-2-methoxybenzoate], on AChE [1], the inhibition at 1 µM was found to be 11% and the AChE inhibitory activity entry is recorded as “devoid of any AChE inhibitory activities; also recorded: absent”. Besides, the Ki at human 5-HT4R [2] stood at 0.0006 ± 0.0004 µM.

In the case of `COc1cc(N)c(Cl)cc1C(=O)CCC1CCN(Cc2cccc(O)c2)CC1` [Compound 4, 1-(4-Amino-5-chloro-2-methoxyphenyl)-3-[1-[(3-hydroxyphenyl)methyl]-4-piperidyl]propan-1-one], the IC50 against AChE [1] (setting [7]) is 0.148 µM and 0.149 µM. Besides, on human 5-HT4R [2], the Ki was 0.0051 ± 0.0011 µM.

Consider `COc1cc(N)c(Cl)cc1C(=O)NCC1CCN(Cc2cccc(O)c2)CC1` [Compound 6, 4-Amino-5-chloro-N-[[1-[(3-hydroxyphenyl)methyl]-4-piperidyl]methyl]-2-methoxybenzamide], for which, at AChE [1], the inhibition at 1 µM was found to be 4% and the AChE inhibitory activity result was “devoid of any AChE inhibitory activities; also recorded: absent”. The same compound had a Ki at human 5-HT4R [2] of 0.0058 ± 0.0012 µM.

With `CCN(C)C(=O)Oc1cccc([C@H](C)N(C)C)c1` [Rivastigmine], the “effect on scopolamine-induced memory performance deficit” value in the data set with rodents [3] was “counterbalance scopolamine-induced memory performance deficit”. Also, in the data set with rodents [4], the “effect on memory deficits induced by MK 801” value is “ineffective in improving memory deficits induced by MK 801”.

With `C[C@H](N)Cc1ccccc1` [Amphetamine, (+)-α-Methylphenethylamine hemisulfate, reference compound], in the data set with mice (2 mg/kg, stimulant reference), the “Symptoms (Subtoxic Doses)” value is “Hyperactivity, exophtalmy, irritability”.

Turning to `CCN(C)C(=O)Oc1cccc(CN2CCC(COC(=O)c3cc(Cl)c(N)cc3OC)CC2)c1` [Compound 8, [1-[[3-[Ethyl(methyl)carbamoyl]oxyphenyl]methyl]-4-piperidyl]methyl 4-amino-5-chloro-2-methoxybenzoate], 16.3 µM corresponded to half-maximal inhibition against AChE [1] (setting [7]) (IC50). Further, at human 5-HT4R [5] (10^−8 M), the inhibition at 0.01 µM turned out to be 23%. For the same compound, the 5-HT4R affinity entry at human 5-HT4R [5] is “devoid of any activity towards 5-HT4R”.

With `COc1cc(N)c(Cl)cc1C(=O)CCC1CCN(Cc2cccc(O)c2)CC1.O=C(O)/C=C/C(=O)O` [Compound 19, 1-(4-Amino-5-chloro-2-methoxyphenyl)-3-[1-[(3-hydroxyphenyl)methyl]-4-piperidyl]propan-1-one fumaric acid salt], the IC50 at AChE [1] (setting [7]) worked out at 0.072 ± 0.0014 µM. In addition, the “% Control Agonist Response” value on (h)5-HT4(a) receptors (5-HT as control 5-HT4R agonist, mean ± SEM) is on record as 59.0 ± 3.9%. Further, the Profile result on (h)5-HT4(a) receptors ((h)5-HT4(a) pharmacological profile) is given as “partial 5-HT4R agonist”. In addition, on (h)5-HT4(a) receptors (given as Log(EC50), negative values, mean ± SEM), a half-maximal response (EC50) required 0.000126 µM. This compound also showed a Ki at human 5-HT4R [2] of 0.0069 ± 0.0012 µM. Further, the “mechanism of AChE inhibition” value at AChE [6] is “non-competitive AChE inhibitor; also recorded: non-competitive-type”.

On to `CCN(C)C(=O)Oc1cccc(CN2CCC(CCC(=O)c3cc(Cl)c(N)cc3OC)CC2)c1` [Compound 7, [3-[[4-[3-(4-Amino-5-chloro-2-methoxyphenyl)-3-oxopropyl]-1-piperidyl]methyl]phenyl] N-ethyl-N-methyl-carbamate], for which the IC50 at AChE [1] (setting [7]) came to 4.15 ± 0.794 µM; at AChE [1] (AChE IC50, value in text), 4.15 µM. The “(h)5-HT4R % Inhibition at 10^−8 M” value at human 5-HT4R [5] (10^−8 M) amounted to 3%. At human 5-HT4R [5], the 5-HT4R affinity result is given as “devoid of any activity towards 5-HT4R”.

For the compound `CCN(C)C(=O)Oc1cccc(CN2CCC(CNC(=O)c3cc(Cl)c(N)cc3OC)CC2)c1` [Compound 9, [3-[[4-[[(4-Amino-5-chloro-2-methoxybenzoyl)amino]methyl]-1-piperidyl]methyl]phenyl] N-ethyl-N-methyl-carbamate], at AChE [1] (setting [7]), the IC50 amounted to 10.1 µM. Besides, on human 5-HT4R [5] (10^−8 M), the inhibition at 0.01 µM was 13%. For the same compound, the 5-HT4R affinity entry at human 5-HT4R [5] was “devoid of any activity towards 5-HT4R”.

Take `CN(C)CCCN1c2ccccc2Sc2ccc(Cl)cc21` [Chlorpromazine, chlorpromazine hydrochloride, reference compound]: the “Symptoms (Subtoxic Doses)” value in the data set on mice (10 mg/kg, depressive reference) is reported as “Hypoactivity, ataxia, sleep”.
